In the supplement of paper PMC11451515:

Tested on: SEM cells
Assay: cell viability relative to DMSO control; higher = less cytotoxic
Details: 48 h
How it was run: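 NOMO1 or SEM cells were plated at 500 cells/well and P12-Ichikawa cells at 1000 cells/well in 1536-well plates (5 μl), after each leukemia line had been adapted for at least four passages in each medium. Pin dosing delivered library compounds in DMSO at 11 threefold concentrations, 47 μM to 0.79 nM. CellTiter-Glo One luminescence was read after 48 h at 37°C. Viability is reported as a per-plate percentage of DMSO wells, with cell-free wells as background.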

[1] = HPLM + 10% dialyzed FBS, 0.000781 µM
[2] = HPLM + 10% dialyzed FBS, 0.00234 µM
[3] = HPLM + 10% dialyzed FBS, 0.00702 µM
[4] = HPLM + 10% dialyzed FBS, 0.0211 µM
[5] = HPLM + 10% dialyzed FBS, 0.0632 µM
[6] = HPLM + 10% dialyzed FBS, 0.19 µM
[7] = HPLM + 10% dialyzed FBS, 0.569 µM
[8] = HPLM + 10% dialyzed FBS, 1.71 µM
[9] = HPLM + 10% dialyzed FBS, 5.12 µM
[10] = HPLM + 10% dialyzed FBS, 15.4 µM
[11] = HPLM + 10% dialyzed FBS, 46.1 µM
[12] = RPMI 5 mM glucose + 10% FBS, 0.000781 µM
[13] = RPMI 5 mM glucose + 10% FBS, 0.00234 µM
[14] = RPMI 5 mM glucose + 10% FBS, 0.00702 µM
[15] = RPMI 5 mM glucose + 10% FBS, 0.0211 µM
[16] = RPMI 5 mM glucose + 10% FBS, 0.0632 µM
[17] = RPMI 5 mM glucose + 10% FBS, 0.19 µM
[18] = RPMI 5 mM glucose + 10% FBS, 0.569 µM
[19] = RPMI 5 mM glucose + 10% FBS, 1.71 µM
[20] = RPMI 5 mM glucose + 10% FBS, 5.12 µM
[21] = RPMI 5 mM glucose + 10% FBS, 15.4 µM
[22] = RPMI 5 mM glucose + 10% FBS, 46.1 µM
[23] = RPMI 5 mM glucose + 10% dialyzed FBS, 0.000781 µM
[24] = RPMI 5 mM glucose + 10% dialyzed FBS, 0.00234 µM
[25] = RPMI 5 mM glucose + 10% dialyzed FBS, 0.00702 µM
[26] = RPMI 5 mM glucose + 10% dialyzed FBS, 0.0211 µM
[27] = RPMI 5 mM glucose + 10% dialyzed FBS, 0.0632 µM
[28] = RPMI 5 mM glucose + 10% dialyzed FBS, 0.19 µM
[29] = RPMI 5 mM glucose + 10% dialyzed FBS, 0.569 µM
[30] = RPMI 5 mM glucose + 10% dialyzed FBS, 1.71 µM
[31] = RPMI 5 mM glucose + 10% dialyzed FBS, 5.12 µM
[32] = RPMI 5 mM glucose + 10% dialyzed FBS, 15.4 µM
[33] = RPMI 5 mM glucose + 10% dialyzed FBS, 46.1 µM

In the case of CC(C)(C)[C@]1(O)C[C@@H]2OC(=O)C[C@@]23C(=O)O[C@@H]2OC(=O)[C@H](O)C213 (some centres undefined), the cell viability [1] is reported as 113%, the cell viability [2] is reported as 108% and the cell viability [3] is reported as 109%. For the same compound, the cell viability [4] was 104%, the cell viability [5] was 110% and the cell viability [6] was 99.1%. It also gave a cell viability [7] of 104%, a cell viability [8] of 111% and a cell viability [9] of 105%. For the same compound, the cell viability [10] was 113%, the cell viability [11] was 115% and the cell viability [12] was 110%. For the same compound, the cell viability [13] was 139%, the cell viability [14] was 120% and the cell viability [15] was 148%. For the same compound, the cell viability [16] was 114%, the cell viability [17] was 108% and the cell viability [18] was 113%. It also gave a cell viability [19] of 90.4%, a cell viability [20] of 118% and a cell viability [21] of 134%. It also gave a cell viability [22] of 125%.

In the case of Nc1cc(N2CCCCC2)nc(N)[n+]1[O-], the cell viability [1] is reported as 98.9%, the cell viability [2] is reported as 122% and the cell viability [3] is reported as 115%. It also gave a cell viability [4] of 112%, a cell viability [5] of 124% and a cell viability [6] of 120%. For the same compound, the cell viability [7] was 121%, the cell viability [8] was 75.6% and the cell viability [9] was 124%. The cell viability [10] was 61.5%, the cell viability [11] was 127% and the cell viability [12] was 100%. The cell viability [13] was 125%, the cell viability [14] was 108% and the cell viability [15] was 110%. It also gave a cell viability [16] of 106%, a cell viability [17] of 116% and a cell viability [18] of 121%. The cell viability [19] was 78.9%, the cell viability [20] was 122% and the cell viability [21] was 58.2%. It also gave a cell viability [22] of 120%, a cell viability [23] of 115% and a cell viability [24] of 132%. It also gave a cell viability [25] of 114%, a cell viability [26] of 116% and a cell viability [27] of 120%. For the same compound, the cell viability [28] was 129%, the cell viability [29] was 108% and the cell viability [30] was 79.8%. It also gave a cell viability [31] of 135%, a cell viability [32] of 83.9% and a cell viability [33] of 133%.

Cc1n[nH]c2ccc(-c3cncc(OC[C@@H](N)Cc4ccccc4)c3)cc12 gave a cell viability [1] of 117%, a cell viability [2] of 124% and a cell viability [3] of 117%. It also gave a cell viability [4] of 108%, a cell viability [5] of 123% and a cell viability [6] of 98.2%. It also gave a cell viability [7] of 71.6%, a cell viability [8] of 56.3% and a cell viability [9] of 14.5%. The cell viability [10] was 5.34%, the cell viability [11] was 4.07% and the cell viability [12] was 105%. It also gave a cell viability [13] of 105%, a cell viability [14] of 116% and a cell viability [15] of 110%. For the same compound, the cell viability [16] was 102%, the cell viability [17] was 98% and the cell viability [18] was 92.7%. It also gave a cell viability [19] of 64%, a cell viability [20] of 7.19% and a cell viability [21] of 4.27%. For the same compound, the cell viability [22] was 3.39%.

CC(C)[C@H](C(=O)Nc1ccc(C(=O)NO)cc1)c1ccccc1 gave a cell viability [12] of 115%, a cell viability [13] of 116% and a cell viability [14] of 126%. The cell viability [15] was 140%, the cell viability [16] was 139% and the cell viability [17] was 148%. For the same compound, the cell viability [18] was 133%, the cell viability [19] was 74.7% and the cell viability [20] was 11.3%. For the same compound, the cell viability [21] was 9.31%, the cell viability [22] was 9.34% and the cell viability [23] was 105%. The cell viability [24] was 101%, the cell viability [25] was 121% and the cell viability [26] was 121%. The cell viability [27] was 120%, the cell viability [28] was 120% and the cell viability [29] was 111%. For the same compound, the cell viability [30] was 56.6%, the cell viability [31] was 8.81% and the cell viability [32] was 8.39%. It also gave a cell viability [33] of 8.47%.
